Patent publication US10870647B2, “Imidazopyridine derivative, method for preparing same, and pharmaceutical composition containing same as active ingredient for preventing or treating cancer” (DAEGU-GYEONGBUK MEDICAL INNOVATION FOUNDATION, priority 2016, dated 2020)

Tests used:
Assay in all cases: Kinase selectivity, scanMAX Kinase assay panel (DiscoverX), % control at 1 uM
Format in all cases: binding
[1] = biological target: T1, scanMAX Kinase assay panel (Homo sapiens, UniProt P00533, G719C); conditions: EGFR (G719C); 1 uM; read-out: Percent Control (%)
T1 construct: purchased DiscoverX
T1 sequence (P00533 25-1210 G719C): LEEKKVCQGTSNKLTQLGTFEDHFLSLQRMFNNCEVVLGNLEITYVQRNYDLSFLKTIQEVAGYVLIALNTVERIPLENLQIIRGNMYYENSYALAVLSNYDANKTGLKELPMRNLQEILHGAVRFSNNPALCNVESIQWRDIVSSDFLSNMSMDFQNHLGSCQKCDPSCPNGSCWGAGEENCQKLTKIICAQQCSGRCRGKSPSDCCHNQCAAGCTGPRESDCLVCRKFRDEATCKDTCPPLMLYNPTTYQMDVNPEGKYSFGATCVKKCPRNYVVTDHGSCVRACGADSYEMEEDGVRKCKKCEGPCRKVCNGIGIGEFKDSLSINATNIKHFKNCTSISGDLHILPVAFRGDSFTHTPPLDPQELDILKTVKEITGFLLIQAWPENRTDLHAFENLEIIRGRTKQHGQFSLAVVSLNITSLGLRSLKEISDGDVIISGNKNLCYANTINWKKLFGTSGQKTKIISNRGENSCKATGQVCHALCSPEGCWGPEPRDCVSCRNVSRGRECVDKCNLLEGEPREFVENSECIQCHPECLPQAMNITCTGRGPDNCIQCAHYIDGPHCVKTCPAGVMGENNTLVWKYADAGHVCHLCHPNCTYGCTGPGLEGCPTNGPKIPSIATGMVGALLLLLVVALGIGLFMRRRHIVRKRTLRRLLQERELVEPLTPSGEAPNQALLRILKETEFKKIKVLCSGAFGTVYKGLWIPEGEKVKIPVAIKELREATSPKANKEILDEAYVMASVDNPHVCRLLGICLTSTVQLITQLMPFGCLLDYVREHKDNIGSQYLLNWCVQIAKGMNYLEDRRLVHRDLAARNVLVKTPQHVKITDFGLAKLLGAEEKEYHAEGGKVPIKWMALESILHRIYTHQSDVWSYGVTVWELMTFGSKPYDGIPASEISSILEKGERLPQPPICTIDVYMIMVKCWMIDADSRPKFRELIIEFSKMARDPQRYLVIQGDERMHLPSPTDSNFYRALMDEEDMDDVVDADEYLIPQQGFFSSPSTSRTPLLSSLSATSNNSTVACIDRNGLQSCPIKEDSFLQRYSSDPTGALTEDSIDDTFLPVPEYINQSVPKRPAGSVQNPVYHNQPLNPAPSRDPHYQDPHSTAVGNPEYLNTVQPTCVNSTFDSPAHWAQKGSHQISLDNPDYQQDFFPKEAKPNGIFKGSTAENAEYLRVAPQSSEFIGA
Procedure, shortened: (§1)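 1 uM cpd (DMSO) per kinase; % ctrl = [cpd − pos ctrl]/[neg ctrl − pos ctrl] × 100; hit if <35.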

[2] = biological target: T2, scanMAX Kinase assay panel (Homo sapiens, UniProt Q96BR1); conditions: SGK3; 1 uM; read-out: Percent Control (%)
T2 construct: purchased DiscoverX
T2 sequence (Q96BR1 1-496): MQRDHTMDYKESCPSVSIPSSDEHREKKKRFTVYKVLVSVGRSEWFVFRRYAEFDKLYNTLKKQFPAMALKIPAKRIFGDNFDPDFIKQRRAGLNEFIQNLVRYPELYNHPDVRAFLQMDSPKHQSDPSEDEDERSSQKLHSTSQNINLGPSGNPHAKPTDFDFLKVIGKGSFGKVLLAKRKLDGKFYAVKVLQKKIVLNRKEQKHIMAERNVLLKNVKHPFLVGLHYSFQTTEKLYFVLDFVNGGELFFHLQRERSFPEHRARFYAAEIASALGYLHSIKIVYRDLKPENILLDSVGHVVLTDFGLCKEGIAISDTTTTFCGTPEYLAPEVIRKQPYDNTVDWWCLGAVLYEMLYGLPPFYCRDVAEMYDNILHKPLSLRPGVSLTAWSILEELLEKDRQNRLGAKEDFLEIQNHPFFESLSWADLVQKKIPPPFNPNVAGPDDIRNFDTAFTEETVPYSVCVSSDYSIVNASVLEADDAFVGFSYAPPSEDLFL
Procedure, shortened: as §1

[3] = biological target: T3, scanMAX Kinase assay panel (Homo sapiens, UniProt P00533, DEL746-750); conditions: EGFR (E746-A750del); 1 uM; read-out: Percent Control (%)
T3 construct: purchased DiscoverX
T3 sequence (P00533 with tags, fused parts or gaps DEL746-750): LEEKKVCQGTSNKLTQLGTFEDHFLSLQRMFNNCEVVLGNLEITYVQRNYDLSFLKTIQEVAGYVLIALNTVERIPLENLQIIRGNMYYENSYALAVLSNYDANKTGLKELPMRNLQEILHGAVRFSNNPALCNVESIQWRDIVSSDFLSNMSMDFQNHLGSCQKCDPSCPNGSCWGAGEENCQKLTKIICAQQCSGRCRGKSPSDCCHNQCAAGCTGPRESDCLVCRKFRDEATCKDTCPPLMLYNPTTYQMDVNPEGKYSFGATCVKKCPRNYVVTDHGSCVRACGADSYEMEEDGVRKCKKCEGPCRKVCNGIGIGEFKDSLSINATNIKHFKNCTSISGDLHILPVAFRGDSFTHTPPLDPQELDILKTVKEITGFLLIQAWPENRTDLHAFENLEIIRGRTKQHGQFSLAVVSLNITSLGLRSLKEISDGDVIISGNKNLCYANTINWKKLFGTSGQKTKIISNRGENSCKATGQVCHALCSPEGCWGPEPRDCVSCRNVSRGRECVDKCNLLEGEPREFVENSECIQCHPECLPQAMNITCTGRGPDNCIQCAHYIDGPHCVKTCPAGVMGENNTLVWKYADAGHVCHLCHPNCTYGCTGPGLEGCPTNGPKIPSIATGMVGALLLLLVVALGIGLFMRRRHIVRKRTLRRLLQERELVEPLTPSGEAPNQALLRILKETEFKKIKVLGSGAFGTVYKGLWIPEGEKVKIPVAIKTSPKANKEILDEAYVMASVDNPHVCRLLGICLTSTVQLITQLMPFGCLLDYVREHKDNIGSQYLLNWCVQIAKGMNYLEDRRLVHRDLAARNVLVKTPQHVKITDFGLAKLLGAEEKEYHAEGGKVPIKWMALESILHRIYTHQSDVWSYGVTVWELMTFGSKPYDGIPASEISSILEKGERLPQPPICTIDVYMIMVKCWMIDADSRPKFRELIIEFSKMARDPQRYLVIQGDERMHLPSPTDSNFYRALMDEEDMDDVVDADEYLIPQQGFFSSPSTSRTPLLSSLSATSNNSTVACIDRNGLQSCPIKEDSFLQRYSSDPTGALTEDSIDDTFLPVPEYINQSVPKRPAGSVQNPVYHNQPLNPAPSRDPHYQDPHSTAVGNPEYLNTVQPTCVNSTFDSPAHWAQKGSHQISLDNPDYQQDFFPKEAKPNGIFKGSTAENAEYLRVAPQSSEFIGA
Procedure, shortened: as §1

[4] = biological target: T4, scanMAX Kinase assay panel (Homo sapiens, UniProt P54762); conditions: EPHB1; 1 uM; read-out: Percent Control (%)
T4 construct: purchased DiscoverX
T4 sequence (P54762 18-984): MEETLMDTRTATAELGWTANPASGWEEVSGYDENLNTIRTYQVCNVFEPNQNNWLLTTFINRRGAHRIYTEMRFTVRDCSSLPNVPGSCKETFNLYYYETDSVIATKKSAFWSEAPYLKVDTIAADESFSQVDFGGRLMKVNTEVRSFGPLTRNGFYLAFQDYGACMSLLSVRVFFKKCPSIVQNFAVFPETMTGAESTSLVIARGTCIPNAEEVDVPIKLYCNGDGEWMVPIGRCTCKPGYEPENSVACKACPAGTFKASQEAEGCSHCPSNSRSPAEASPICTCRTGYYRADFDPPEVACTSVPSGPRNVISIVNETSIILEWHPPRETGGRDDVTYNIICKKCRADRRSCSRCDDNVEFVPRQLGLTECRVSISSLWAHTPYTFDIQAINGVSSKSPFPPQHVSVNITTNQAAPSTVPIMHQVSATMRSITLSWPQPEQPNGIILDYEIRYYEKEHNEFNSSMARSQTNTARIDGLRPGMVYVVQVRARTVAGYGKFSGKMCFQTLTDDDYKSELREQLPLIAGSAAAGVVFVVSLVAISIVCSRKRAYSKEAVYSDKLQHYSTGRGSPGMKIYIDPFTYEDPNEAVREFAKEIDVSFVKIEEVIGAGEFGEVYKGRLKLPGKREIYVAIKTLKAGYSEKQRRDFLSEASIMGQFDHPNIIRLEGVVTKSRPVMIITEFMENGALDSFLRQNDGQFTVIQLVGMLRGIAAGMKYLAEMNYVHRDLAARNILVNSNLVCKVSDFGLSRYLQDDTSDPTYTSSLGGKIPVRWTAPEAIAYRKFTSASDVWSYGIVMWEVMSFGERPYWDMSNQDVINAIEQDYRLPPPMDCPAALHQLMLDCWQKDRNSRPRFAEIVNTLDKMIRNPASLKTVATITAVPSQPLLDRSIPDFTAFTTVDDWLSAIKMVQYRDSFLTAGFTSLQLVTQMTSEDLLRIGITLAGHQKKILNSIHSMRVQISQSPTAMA
Procedure, shortened: as §1

[5] = biological target: T5, scanMAX Kinase assay panel (Homo sapiens, UniProt P31751); conditions: AKT2; 1 uM; read-out: Percent Control (%)
T5 construct: purchased DiscoverX
T5 sequence (P31751 whole entry): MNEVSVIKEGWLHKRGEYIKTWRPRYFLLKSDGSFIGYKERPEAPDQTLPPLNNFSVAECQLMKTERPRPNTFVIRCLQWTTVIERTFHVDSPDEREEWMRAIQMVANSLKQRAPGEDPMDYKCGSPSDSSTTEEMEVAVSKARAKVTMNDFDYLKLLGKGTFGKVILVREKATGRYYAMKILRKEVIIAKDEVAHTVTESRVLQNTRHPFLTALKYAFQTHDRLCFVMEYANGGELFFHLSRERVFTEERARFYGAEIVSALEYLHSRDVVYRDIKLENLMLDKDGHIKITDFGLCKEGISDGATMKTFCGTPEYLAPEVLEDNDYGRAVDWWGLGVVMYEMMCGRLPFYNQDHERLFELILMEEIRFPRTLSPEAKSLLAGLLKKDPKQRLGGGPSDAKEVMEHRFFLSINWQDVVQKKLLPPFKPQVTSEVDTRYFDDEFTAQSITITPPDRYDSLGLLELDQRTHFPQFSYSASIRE
Procedure, shortened: as §1

[6] = biological target: T6, scanMAX Kinase assay panel (Homo sapiens, UniProt P17612); conditions: PKAC-alpha; 1 uM; read-out: Percent Control (%)
T6 construct: purchased DiscoverX
Procedure, shortened: as §1

Compound	remaining binding at 1 µM [1]	remaining binding at 1 µM [2]	remaining binding at 1 µM [3]	remaining binding at 1 µM [4]	remaining binding at 1 µM [5]	remaining binding at 1 µM [6]
Cc1ccc(C(=O)Nc2ccc(CN3CCN(C)CC3)c(C(F)(F)F)c2)cc1C#Cc1cnc2c(Nc3cnn(C)c3)cccn12 [Example 1, 4-methyl-3-((8-((1-methyl-1H-pyrazol-4-yl)amino)imidazo[1,2-a]pyridin-3-yl)ethynyl)-N-(4-((4-methylpiperazin-1-yl)methyl)-3-(trifluoromethyl)phenyl)benzamide]	1%	97%	0%	0%	37%	35%
Cc1cn(-c2cc(NC(=O)c3ccc(C)c(C#Cc4cnc5c(Nc6cnn(C)c6)cccn45)c3)cc(C(F)(F)F)c2)cn1 [Example 12, 4-methyl-N-(3-(4-methyl-1H-imidazol-1-yl)-5-(trifluoromethyl)phenyl)-3-((8-((1-methyl-1H-pyrazol-4-yl)amino)imidazo[1,2-a]pyridin-3-yl)ethynyl)benzamide]	21%	100%	8%	15%	82%	93%
Cc1ccc(NC(=O)C2(C(=O)Nc3ccc(F)cc3)CC2)cc1C#Cc1cnc2c(Nc3cnn(C(C)C)c3)cccn12 [Example 78]	97%	78%	93%	90%	99%	100%
